Patent publication US20230085307A1, “PYRIDAZINONE COMPOUND AND HERBICIDE” (NISSAN CHEMICAL CORPORATION, priority 2019, published 2023)

Columns and labels:
barnyard grass [1] = assay: Test Example 3: herbicidal effect by foliage application, Wagner pot (Table 18, symbol H); type: in vivo, barnyard grass (Echinochloa crus-galli); conditions: 320 g/ha
How it was run: (§1)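 Plants were sown in alluvial soil held under 0.1–0.5 cm standing water and grown 14 days in a greenhouse at 25–30 °C. An emulsifiable formulation, water-diluted to the set dose, was then sprayed onto the foliage, and effects were scored three weeks later using previously defined criteria.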

Chinese sprangletop = assay: Test Example 3: herbicidal effect by foliage application, Wagner pot (Table 18, symbol D); type: in vivo, chinese sprangletop (Leptochloa chinensis); conditions: 320 g/ha
How it was run: as §1

rice flat sedge = assay: Test Example 3: herbicidal effect by foliage application, Wagner pot (Table 18, symbol E); type: in vivo, rice flat sedge (Cyperus iria); conditions: 320 g/ha
How it was run: as §1

southern crabgrass [2] = assay: Test Example 4: herbicidal effect by soil treatment (Table 19, symbol F); type: in vivo, southern crabgrass (Digitaria ciliaris); conditions: AAH 320 g/ha
How it was run: (§2)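 Three weeks of greenhouse growth at 25° C. to 30° C. followed a uniform surface spray of water-diluted emulsion at a predetermined herbicide amount. Seeds had been sown beforehand under about 1.5 cm of sterilized diluvial soil. Grading followed criteria set out in an earlier test.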

green foxtail [3] = assay: Test Example 4: herbicidal effect by soil treatment (Table 19, symbol G); type: in vivo, green foxtail (Setaria viridis); conditions: AAH 320 g/ha
How it was run: as §2

barnyard grass [4] = assay: Test Example 4: herbicidal effect by soil treatment (Table 19, symbol H); type: in vivo, barnyard grass (Echinochloa crus-galli); conditions: AAH 320 g/ha
How it was run: as §2

wild oat [5] = assay: Test Example 4: herbicidal effect by soil treatment (Table 19, symbol I); type: in vivo, wild oat (Avena fatua); conditions: AAH 320 g/ha
How it was run: as §2

blackgrass [6] = assay: Test Example 4: herbicidal effect by soil treatment (Table 19, symbol J); type: in vivo, blackgrass (Alopecurus myosuroides); conditions: AAH 320 g/ha
How it was run: as §2

Italian ryegrass [7] = assay: Test Example 4: herbicidal effect by soil treatment (Table 19, symbol K); type: in vivo, Italian ryegrass (Lolium multiflorum); conditions: AAH 320 g/ha
How it was run: as §2

windgrass [8] = assay: Test Example 4: herbicidal effect by soil treatment (Table 19, symbol L); type: in vivo, windgrass (Apera spica-venti); conditions: AAH 320 g/ha
How it was run: as §2

velvetleaf [9] = assay: Test Example 4: herbicidal effect by soil treatment (Table 19, symbol M); type: in vivo, velvetleaf (Abutilon theophrasti); conditions: AAH 320 g/ha
How it was run: as §2

redroot pigweed [10] = assay: Test Example 4: herbicidal effect by soil treatment (Table 19, symbol N); type: in vivo, redroot pigweed (Amaranthus retroflexus); conditions: AAH 320 g/ha
How it was run: as §2

lambsquarters [11] = assay: Test Example 4: herbicidal effect by soil treatment (Table 19, symbol O); type: in vivo, lambsquarters (Chenopodium album); conditions: AAH 320 g/ha
How it was run: as §2

chickweed [12] = assay: Test Example 4: herbicidal effect by soil treatment (Table 19, symbol P); type: in vivo, common chickweed (Stellaria media); conditions: AAH 320 g/ha
How it was run: as §2

false cleavers = assay: Test Example 4: herbicidal effect by soil treatment (Table 19, symbol Q); type: in vivo, false cleavers (Galium spurium); conditions: AAH 320 g/ha
How it was run: as §2

persian speedwell [13] = assay: Test Example 4: herbicidal effect by soil treatment (Table 19, symbol R); type: in vivo, Persian speedwell (Veronica persica); conditions: AAH 320 g/ha
How it was run: as §2

southern crabgrass [14] = assay: Test Example 5: herbicidal effect by foliage application, plastic box (Table 20, symbol F); type: in vivo, southern crabgrass (Digitaria ciliaris); conditions: foliage application, AAH 320 g/ha, three weeks after application
How it was run: (§3)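 Plants sown in sterilized diluvial soil and grown 14 days in a greenhouse at 25° C to 30° C, then sprayed on the foliage with the compound's emulsion diluted in water to a predetermined herbicide amount. Injury to weeds and crops scored three weeks after application on a visual rating scale.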

green foxtail [15] = assay: Test Example 5: herbicidal effect by foliage application, plastic box (Table 20, symbol G); type: in vivo, green foxtail (Setaria viridis); conditions: foliage application, AAH 320 g/ha, three weeks after application
How it was run: as §3

barnyard grass [16] = assay: Test Example 5: herbicidal effect by foliage application, plastic box (Table 20, symbol H); type: in vivo, barnyard grass (Echinochloa crus-galli); conditions: foliage application, AAH 320 g/ha, three weeks after application
How it was run: as §3

wild oat [17] = assay: Test Example 5: herbicidal effect by foliage application, plastic box (Table 20, symbol I); type: in vivo, wild oat (Avena fatua); conditions: foliage application, AAH 320 g/ha, three weeks after application
How it was run: as §3

blackgrass [18] = assay: Test Example 5: herbicidal effect by foliage application, plastic box (Table 20, symbol J); type: in vivo, blackgrass (Alopecurus myosuroides); conditions: foliage application, AAH 320 g/ha, three weeks after application
How it was run: as §3

Italian ryegrass [19] = assay: Test Example 5: herbicidal effect by foliage application, plastic box (Table 20, symbol K); type: in vivo, Italian ryegrass (Lolium multiflorum); conditions: foliage application, AAH 320 g/ha, three weeks after application
How it was run: as §3

windgrass [20] = assay: Test Example 5: herbicidal effect by foliage application, plastic box (Table 20, symbol L); type: in vivo, windgrass (Apera spica-venti); conditions: foliage application, AAH 320 g/ha, three weeks after application
How it was run: as §3

velvetleaf [21] = assay: Test Example 5: herbicidal effect by foliage application, plastic box (Table 20, symbol M); type: in vivo, velvetleaf (Abutilon theophrasti); conditions: foliage application, AAH 320 g/ha, three weeks after application
How it was run: as §3

redroot pigweed [22] = assay: Test Example 5: herbicidal effect by foliage application, plastic box (Table 20, symbol N); type: in vivo, redroot pigweed (Amaranthus retroflexus); conditions: foliage application, AAH 320 g/ha, three weeks after application
How it was run: as §3

lambsquarters [23] = assay: Test Example 5: herbicidal effect by foliage application, plastic box (Table 20, symbol O); type: in vivo, lambsquarters (Chenopodium album); conditions: foliage application, AAH 320 g/ha, three weeks after application
How it was run: as §3

chickweed [24] = assay: Test Example 5: herbicidal effect by foliage application, plastic box (Table 20, symbol P); type: in vivo, common chickweed (Stellaria media); conditions: foliage application, AAH 320 g/ha, three weeks after application
How it was run: as §3

persian speedwell [25] = assay: Test Example 5: herbicidal effect by foliage application, plastic box (Table 20, symbol R); type: in vivo, Persian speedwell (Veronica persica); conditions: foliage application, AAH 320 g/ha, three weeks after application
How it was run: as §3

SMILES: CCCC(=O)Oc1c(OC)nn(C)c(=O)c1-c1c(-c2ccc([N+](=O)[O-])cc2)sc2ccccc12 [1-169]
- herbicidal effect on H (barnyard grass), rating 0-5 (barnyard grass [1]): 1 (Herbicidal rate of 5% or more and less than 20%)
- herbicidal effect on D (Chinese sprangletop), rating 0-5 (Chinese sprangletop): 0 (Herbicidal rate of 5% or less (almost no effect))
- herbicidal effect on E (rice flat sedge), rating 0-5 (rice flat sedge): 2 (Herbicidal rate of 20% or more and less than 40%)
- F: southern crabgrass, herbicidal effect rating (southern crabgrass [2]): 0 (Herbicidal rate of 5% or less (almost no effect))
- G: green foxtail, herbicidal effect rating (green foxtail [3]): 0 (Herbicidal rate of 5% or less (almost no effect))
- H: barnyard grass, herbicidal effect rating (barnyard grass [4]): 0 (Herbicidal rate of 5% or less (almost no effect))
- I: wild oat, herbicidal effect rating (wild oat [5]): 0 (Herbicidal rate of 5% or less (almost no effect))
- J: blackgrass, herbicidal effect rating (blackgrass [6]): 0 (Herbicidal rate of 5% or less (almost no effect))
- K: Italian ryegrass, herbicidal effect rating (Italian ryegrass [7]): 0 (Herbicidal rate of 5% or less (almost no effect))
- L: windgrass, herbicidal effect rating (windgrass [8]): 0 (Herbicidal rate of 5% or less (almost no effect))
- M: velvetleaf, herbicidal effect rating (velvetleaf [9]): 0 (Herbicidal rate of 5% or less (almost no effect))
- N: redroot pigweed, herbicidal effect rating (redroot pigweed [10]): 0 (Herbicidal rate of 5% or less (almost no effect))
- O: lambsquarters, herbicidal effect rating (lambsquarters [11]): 0 (Herbicidal rate of 5% or less (almost no effect))
- P: chickweed, herbicidal effect rating (chickweed [12]): 1 (Herbicidal rate of 5% or more and less than 20%)
- Q: false cleavers, herbicidal effect rating (false cleavers): 0 (Herbicidal rate of 5% or less (almost no effect))
- R: persian speedwell, herbicidal effect rating (persian speedwell [13]): 3 (Herbicidal rate of 40% or more and less than 70%)
- F: southern crabgrass, herbicidal effect (southern crabgrass [14]): 0 (Herbicidal rate of 5% or less (almost no effect))
- G: green foxtail, herbicidal effect (green foxtail [15]): 0 (Herbicidal rate of 5% or less (almost no effect))
- H: barnyard grass, herbicidal effect (barnyard grass [16]): 0 (Herbicidal rate of 5% or less (almost no effect))
- I: wild oat, herbicidal effect (wild oat [17]): 0 (Herbicidal rate of 5% or less (almost no effect))
- J: blackgrass, herbicidal effect (blackgrass [18]): 0 (Herbicidal rate of 5% or less (almost no effect))
- K: Italian ryegrass, herbicidal effect (Italian ryegrass [19]): 0 (Herbicidal rate of 5% or less (almost no effect))
- L: windgrass, herbicidal effect (windgrass [20]): 0 (Herbicidal rate of 5% or less (almost no effect))
- M: velvetleaf, herbicidal effect (velvetleaf [21]): 0 (Herbicidal rate of 5% or less (almost no effect))
- N: redroot pigweed, herbicidal effect (redroot pigweed [22]): 4 (Herbicidal rate of 70% or more and less than 90%)
- O: lambsquarters, herbicidal effect (lambsquarters [23]): 4 (Herbicidal rate of 70% or more and less than 90%)
- P: chickweed, herbicidal effect (chickweed [24]): 4 (Herbicidal rate of 70% or more and less than 90%)
- R: persian speedwell, herbicidal effect (persian speedwell [25]): 4 (Herbicidal rate of 70% or more and less than 90%)
